In patent publication US4487718A, “Peptides” (Kowa Company, Ltd., priority 1983, dated 1984):

Legend:
[1] = target: T1, activated blood coagulation factor XIII (Homo sapiens, UniProt P00488); assay: Crosslinking capacity of the peptide (Ia) to fibrin (125I-labeled peptide, fibrin clot radioactivity); type: biochemical
T1 sequence (P00488 39-732 limits assumed): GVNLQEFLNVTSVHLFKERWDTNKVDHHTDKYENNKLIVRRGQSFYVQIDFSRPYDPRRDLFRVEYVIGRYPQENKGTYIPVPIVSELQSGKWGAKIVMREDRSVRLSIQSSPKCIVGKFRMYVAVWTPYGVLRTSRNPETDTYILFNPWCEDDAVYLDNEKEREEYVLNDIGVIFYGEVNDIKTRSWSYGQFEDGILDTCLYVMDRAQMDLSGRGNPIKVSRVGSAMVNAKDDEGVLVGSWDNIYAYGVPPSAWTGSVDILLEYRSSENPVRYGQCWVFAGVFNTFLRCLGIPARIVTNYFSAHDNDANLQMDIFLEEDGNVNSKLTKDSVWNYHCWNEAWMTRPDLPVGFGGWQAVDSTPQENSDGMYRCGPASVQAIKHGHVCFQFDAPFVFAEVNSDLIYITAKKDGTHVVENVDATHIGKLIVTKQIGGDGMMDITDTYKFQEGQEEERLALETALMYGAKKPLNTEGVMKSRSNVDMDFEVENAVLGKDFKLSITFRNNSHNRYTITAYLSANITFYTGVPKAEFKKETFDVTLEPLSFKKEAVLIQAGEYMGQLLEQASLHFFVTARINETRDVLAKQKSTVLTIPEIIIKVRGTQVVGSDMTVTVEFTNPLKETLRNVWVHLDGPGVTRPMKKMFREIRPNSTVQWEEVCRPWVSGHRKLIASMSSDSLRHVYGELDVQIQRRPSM
Protocol: To a mixed solution of 20 μl of the peptide (Ia) labeled with a radioactive isotope ^125 I, 20 μl of fibrinogen (30 mg/ml, 88 μM, containing 2 or 10 μ/ml of the blood coagulation factor XIII) and 140 μl of a Tris buffer, was added 20 μl of a mixed solution of thrombin (3.3 u/ml) and calcium chloride (50 mM). The resulting mixture was then incubated at 37° C.
The clotting sample was frozen instantaneously at each time with dry ice/acetone to terminate the reaction and then lyophilized. The resulting fibrin film was washed three times, each for 5 minutes, with 200 μl of 50 mM EDTA containing 1% of BSA (brovine serum albmin). The thus washed fibrin film was measured in its radioactivity to determine the amount of the peptide coupled with the fibrin [see "Biochim, Biophys, Acta", 661, 280-286, (1981)].

[2] = target: T2, crosslinking of α2 -PI to fibrin (Homo sapiens, UniProt P00488); assay: Inhibitory effect against the crosslinking of α2 -PI to fibrin; type: biochemical; conditions: peptide 0-50 mM solution, α2 -PI 10 μM solution; FIG. 2
T2 sequence (P00488 39-732 limits assumed): T1 sequence (P00488 39-732 limits assumed)
Protocol: Twenty microliters of a mixed solution of thrombin (3.3 u/ml) and calcium chloride (50 mM) was added to a mixed solution consisting of 20 μl of fibrinogen (30 mg/ml, 88 μM, containing 10 u/ml of the blood coagulation factor XIII), 20 μl of α2 -PI (0.67 mg/ml, 10 μM), 20 μl of a ^125 I-labeled peptide (0-50 mM) and 120 μl of a Tris buffer. The amount of the peptide bonded to the resulting fibrin clot was then determined in the same manner as in Experiment 1.
On the other hand, the amount of α2 -PI coupled with a fibrin clot was also determined using ^125 I-labeled α2 -PI and an unlabeled peptide.

fibrin clot [3] = assay: Fibrinolysis-accelerating effect: release of 125I from fibrin clots of platelet-rich plasma; parameters: species or system human; conditions: peptide 0-500 μM, FIG. 3
Protocol: Healthy human blood to which sodium citrate had been added, was subjected to centrifugal separation to prepare platelet-rich plasma. A trace amount of ^125 I-labeled fibrinogen was added to and mixed with the platelet-rich plasma. 250 mM solutions of calcium chloride which contained the peptide (Ia) at different levels (0-5 mM) were poured, each in a volume of 20 μl, into glass test tubes. Each test tube was added with 180 μl of the above plasma and then allowed to stand at 37° C. A fibrin clot was formed in several minutes. Clot retraction started about 15 minutes later and was completed in about 30 minutes.
Thereafter, 800 μl of platelet-poor plasma which contained the peptide (Ia) at different levels (0-500 μM) and 1 u of Hirudin was added to each of the test tubes. The test tube was then incubated at 37° C. The contents were sampled periodically to measure ^125 I released into the supernatant.

fibrin clot [4] = assay: Synergistic effects in combination with tissue plasminogen activator (TPA), added before or after clot formation; parameters: species or system human; conditions: with melanoma-derived TPA, compared with no activator, FIGS. 4 and 5
Protocol: Healthy human blood to which sodium citrate had been added, was subjected to centrifugal separation to prepare platelet-rich plasma. A trace amount of ^125 I-labeled fibrinogen was added to and mixed with the platelet-rich plasma. 250 mM solutions of calcium chloride which contained the peptide (Ia) at different levels (0-5 mM) and 1 u/ml of a melanoma-derived tissue plasminogen activator (TPA), were poured 20 μl by 20 μl into glass test tubes, each of which was then added with 180 μl of the above plasma. A fibrin clot was formed in several minutes. Clot retraction started about 15 minutes later and was completed in about 30 minutes.
Thereafter, each test tube was added with 800 μl of platelet-poor plasma which contained the peptide (Ia) at different levels (0-500 μM) and 1 u of Hirudin. The test tube was then incubated at 37° C. The contents were sampled periodically to measure ^125 I released into the supernatant.
Healthy human blood to which sodium citrate had been added, was subjected to centrifugal separation to prepare platelet-rich plasma. A trace amount of ^125 I-labeled fibrinogen was added to and mixed with the platelet-rich plasma. 250 mM solutions of calcium chloride were poured 20 μl by 20 μl into glass test tubes, each of which was then added with 180 μl of the above plasma. A fibrin clot was formed in several minutes. […]

In the case of “L-Asn-L-Gln-L-Glu-L-Gln-L-Val-L-Ser-L-Pro-L-Leu-L-Thr-L-Gly-L-Leu-L-Lys-NH [peptide (Ia)]”, the “amount of the peptide coupled with the fibrin at equilibrium” value ([1]; 125I-labeled peptide, fibrinogen containing factor XIII, thrombin, calcium chloride, 37° C., FIG. 1) is reported as “about 40%”, the “crosslinking velocity to fibrin” value ([1]; compared with α2 -PI, FIG. 1) is reported as “substantially the same as that of α2 -PI” and the “glutamine substrate for the activated blood coagulation factor XIII” value ([1]; conclusion from Experiment 1) is reported as “good glutamine substrate”. The “inhibition of the crosslinking of α2 -PI to the fibrin” value [2] was “inhibits competitively”, the “fibrinolysis-accelerating effect (dissolution of fibrin clot)” value (fibrin clot [3]; human platelet-rich plasma clot, 37° C., compared with absence of peptide) was “has a fibrinolysis-accelerating effect” and the “dependence of the fibrinolysis-accelerating effect on the amount added” value (fibrin clot [3]) was “proportional to the amounts of the peptide (Ia) added”. For the same substance, the “fibrinolysis-accelerating effect in combination with a plasminogen activator” value (fibrin clot [4]) was “synergistically enhanced fibrinolysis-accelerating effect”.
